pKi: −log10 of the molar value.

The target in one data set is Mel1a (MT1R) (Homo sapiens, UniProt P48039). The data set is described as follows: Affinity (Ki) for melatonin receptor MT1R. It counts as binding.
Data set [1] can be described thus: Solubility of tasimelteon in solvents and water. It counts as physicochemical.
For another data set, the target named is T1, Mel1b (MT2R) (Homo sapiens, UniProt P49286).
T1 sequence (P49286 1-362): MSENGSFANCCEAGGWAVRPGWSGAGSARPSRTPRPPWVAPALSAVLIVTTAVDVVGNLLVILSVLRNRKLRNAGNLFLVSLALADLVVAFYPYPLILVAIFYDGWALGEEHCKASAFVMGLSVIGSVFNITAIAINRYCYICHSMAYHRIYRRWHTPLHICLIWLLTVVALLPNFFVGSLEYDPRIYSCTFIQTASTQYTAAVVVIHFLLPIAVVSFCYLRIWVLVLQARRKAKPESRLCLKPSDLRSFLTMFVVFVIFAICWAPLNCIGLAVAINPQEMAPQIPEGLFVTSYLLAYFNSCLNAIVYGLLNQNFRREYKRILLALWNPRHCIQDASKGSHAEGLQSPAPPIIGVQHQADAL
Put plainly: Affinity (Ki) for melatonin receptor MT2R. Format: binding.

Another data set deals with sleep parameters. Conditions: cited from earlier work.
Data set [2] can be described thus: Metabolite formation following oral administration of tasimelteon. It counts as in vivo. The note with it: humans.

Sequence of Mel1a (MT1R) (P48039 whole entry): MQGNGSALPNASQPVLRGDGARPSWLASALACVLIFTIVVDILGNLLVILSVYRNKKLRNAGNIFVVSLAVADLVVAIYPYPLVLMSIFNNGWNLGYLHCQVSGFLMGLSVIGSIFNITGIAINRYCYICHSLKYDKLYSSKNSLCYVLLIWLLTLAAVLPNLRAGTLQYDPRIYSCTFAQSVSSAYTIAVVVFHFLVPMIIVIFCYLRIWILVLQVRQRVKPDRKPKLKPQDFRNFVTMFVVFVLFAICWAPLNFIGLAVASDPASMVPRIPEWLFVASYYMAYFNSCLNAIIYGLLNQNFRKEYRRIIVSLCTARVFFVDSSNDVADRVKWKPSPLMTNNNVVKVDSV

Regarding `CCC(=O)NC[C@@H]1C[C@H]1c1cccc2c1CCO2` (relative stereo) [Tasimelteon, trans-N-[[2-(2,3-dihydrobenzofuran-4-yl)cycloprop-1yl]methyl]propanamide], the values for the pKi on Mel1a (MT1R) and on Mel1b (MT2R) were 9.40 to 9.52 and 9.70 to 10.00, respectively. In addition, the “solubility in organic solvents” value in data set [1] (95% ethanol, methanol, acetonitrile, ethyl acetate, isopropanol, polyethylene glycols (PEG-300 and PEG-400)) is listed as “very soluble or freely soluble”. In data set [1] (aqueous), the “effect of pH on aqueous solubility” value is listed as “practically unaffected by pH”. Besides, the “native pH of a saturated solution in water” value in data set [1] (saturated solution in water) was determined as 8.5. Further, the solubility in water result in data set [1] (water) was “only slightly soluble”. Moreover, the “greater affinity for MT2R relative to MT1R” value at Mel1b (MT2R) (MT2R relative to MT1R) is listed as 2-4 times. For the same compound, in the data set on sleep parameters (prior clinical studies, simulated desynchronization of the circadian clock), the “effect on sleep parameters” value was “shown to improve sleep parameters”. For the same compound, in the data set with sleep parameters (studied in hundreds of individuals), the tolerability profile result is reported as “good tolerability profile”.
For `CCC(=O)NC[C@@H]1C[C@H]1c1cccc(O)c1CC(=O)O` [M9], the formation as metabolite entry in data set [2] was “formed in humans”.
On the same count and under the same terms, under `CCC(=O)NC[C@@H]1C[C@H]1c1cccc(O)c1CCO` [M11] stands “formed in humans”.

One may read the pKi as −log10 of the Ki, conventionally taken in molar units. The low end stands for a high Ki, the high end for a low Ki.
